According to patent EP0233686A2, “Bis phenyl ethanol amines and bis phenyoxypropanolamines having a beta-agonist activity” (BEECHAM GROUP PLC, priority 1986, dated 1987):
Counter-ions that a name gives are not always drawn.

Tested on: Female CFLP mice
Experiment: Hypoglycaemic activity: oral compound, then subcutaneous glucose load in fasted mice; area under the blood glucose curve over 2 hours compared with water controls
Assay type: in vivo
Conditions: Mus musculus, mice fasted for 24 hours, glucose 1g/kg s.c. 30 minutes after dosing, 2 hour AUC vs water controls, read-out: % reduction in area under blood glucose curve; for inhibition in vivo at 3 µmol/kg: dose 3 µmol/Kg p.o.
Protocol: Female CFLP mice, weighing approximately 25g, were fasted for 24 hours prior to the study. The compounds under study were administered orally as an aqueous solution to each of 6 mice. 30 minutes later a blood sample (20ul) was obtained from the tail for the analysis of blood glucose. Immediately after taking this blood sample, glucose (lg/kg body weight) was administered subcutaneously to each mouse. 6 mice were -given water as a control. Blood samples were then obtained from each mouse at 30 minute intervals for 120 minutes. Compounds that produced a significant (p>0.05) reduction of blood glucose, compared with control mice given water, at any time interval were considered active. The area under the blood glucose curve over the 2 hour period after the administration of the glucose was calculated for each compound and compared with the value for control animals.

Q: For C[C@H](Cc1ccc(OCCCCCCOc2ccc(C[C@@H](C)NC[C@H](O)c3cccc(Cl)c3)cc2)cc1)NC[C@H](O)c1cccc(Cl)c1 [Example 3, [R,R,R,R]-α,α'[1,6-Hexanediylbis[oxy-4,1-phenylene(1-methyl-2,1-ethanediyl)iminomethylene]]bis[3-chlorobenzenemethanol], dihydrochloride], which inhibition in vivo at 1 µmol/kg (dose 1.0 µmol/Kg p.o.) is on record?
A: 55%

Q: Which inhibition in vivo at 3 µmol/kg does the source give for C[C@H](Cc1ccc(S(=O)(=O)c2ccc(C[C@@H](C)NC[C@H](O)c3cccc(Cl)c3)cc2)cc1)NC[C@H](O)c1cccc(Cl)c1 [Example 6, [R,R,R,R]-α,α'-[Sulphonylbis[4,1-phenylene(1-methyl-2,1-ethanediyl)iminomethylene]]bis|3-chlorobenzenemethanol] dihydrochloride] here?
A: 30%

Q: With C[C@H](Cc1ccc(C(O)(CO)c2ccc(C[C@@H](C)NC[C@H](O)c3cccc(Cl)c3)cc2)cc1)NC[C@H](O)c1cccc(Cl)c1 [Example 7, [R,R,R,R]-1,1-di[4-[2-[[2-(3-chlorophenyl)-2-hydroxyethyl]amino]propyl]phenyl]-1,2-ethanediol, dihydrochloride] as the compound, how does the inhibition in vivo at 2.5 µmol/kg (dose 2.5 µmol/Kg p.o.) read?
A: 17%

Q: For C[C@H](Cc1ccc(CCCCCCc2ccc(C[C@@H](C)NC[C@H](O)c3cccc(Cl)c3)cc2)cc1)NC[C@H](O)c1cccc(Cl)c1 [Example 19, [R,R,R,R]-α,α'-[1,6-Hexanediylbis[4,1-phenylene (1-methyl-2,1-ethanediyl)iminomethylene]] bis[3-chlorobenzenemethanol], dihydrochloride], which inhibition in vivo at 10 µmol/kg (dose 10 µmol/Kg p.o.) is on record?
A: 11%

Q: C[C@H](Cc1ccc(OCC(=O)NCCNC(=O)COc2ccc(C[C@@H](C)NC[C@H](O)c3cccc(Cl)c3)cc2)cc1)NC[C@H](O)c1cccc(Cl)c1 [Example 1, [R,R,R,R]-N,N'-(1,2-Ethanediyl)bis[2-[4-[2-[(2-(3-chlorophenyl)-2-hydroxyethyl)amino]propyl]phenoxy]acetamide]] was tested. Which inhibition in vivo at 12.5 µmol/kg (dose 12.5 µmol/Kg p.o.) did it give?
A: 43%

Q: Which inhibition in vivo at 0.1 µmol/kg (dose 0.1 µmol/Kg p.o.) does the source give for C[C@H](Cc1ccc(OCCCCCOc2ccc(C[C@@H](C)NC[C@H](O)c3cccc(Cl)c3)cc2)cc1)NC[C@H](O)c1cccc(Cl)c1 [Example 20, [R,R,R,R]-α,α'-[1,5-Pentanediylbis[oxy-4,1-phenylene (1-methyl-2,1-ethanediyl)iminomethylene]] bis[3-chlorobenzenemethanol], dihydrochloride] here?
A: 51%

Q: For C[C@H](Cc1ccc(CNCCCCNCc2ccc(C[C@@H](C)NC[C@H](O)c3cccc(Cl)c3)cc2)cc1)NC[C@H](O)c1cccc(Cl)c1 [Example 16, [R,R,R,R]-α,α'-[1,4-Butanediylbis[iminomethylene-4,1-phenylene(1-methyl-2,1-ethanediyl)iminomethylene]]bis [3-chlorobenzenemethanol, tetrahydrochloride], which inhibition in vivo at 3 µmol/kg is on record?
A: 8%

Q: C[C@H](Cc1ccc(OCCCCCCCCCOc2ccc(C[C@@H](C)NC[C@H](O)c3cccc(Cl)c3)cc2)cc1)NC[C@H](O)c1cccc(Cl)c1 [Example 13, [R,R,R,R,]-α,α'[1,9-Nonanediylbis[oxy-4,1-phenylene (1-methyl-2,1-ethanediyl)iminomethylene]]bis[3-chlorobenzenemethanol], dihydrochloride] was tested. Which inhibition in vivo at 3 µmol/kg did it give?
A: 34%
